# Earlier results in patent US20080227642A1, “Salts, aqueous liquid compositions containing salts of abscisic acid analogs and methods of their preparation” (priority 2007, published 2008).
# Details: room temperature
smiles,measurement,value
"CC1=CC(=O)CC(C)(C)[C@@]1(O)/C=C/C(C)=C\C(=O)O [(S)-(+)-abscisic acid, 2-cis-,4-trans-(S)-(+)-abscisic acid]",highest concentration that can be achieved in pure water,about 3000 ppm
